Reference: patent publication US9969755B2, “Photodynamic therapy photosensitizers” (The Royal Institution for the Advancement of …, priority 2016, dated 2018)
Values after ≈ are worked out from the molar mass of the structure shown. Values joined by “and” are separate entries in the source; they are usually repeats but may differ in a detail not shown here. Equal entries are not always repeated.

Legend:
[1] = ^1O2 quantum yield and lifetime, ^1O2 phosphorescence at 1270 nm (direct method); format: physicochemical; settings: for ΦΔ^D (singlet oxygen quantum yield, direct): ^1O2 phosphorescence at 1270 nm, air equilibrated acetonitrile
Experimental: The generation of singlet oxygen and its lifetime were determined from ^1O2 phosphorescence decay curves recorded at 1270 nm upon excitation with a 532 nm Nd:YAG laser. A total of 3 laser shots were applied to acquire a trace. […] Quantum yield of ^1O2 production (φΔ^D) were calculated comparing the intensity of ^1O2 phosphorescence at 1270 nm for the corresponding photosensitizer with that recorded for Rose Bengal (φΔ=0.54).^81

[2] = Phosphorescence studies at 77 K; format: physicochemical; design: unit not given beside the values; settings: from phosphorescence emission spectra, 4:1 EtOH:MeOH
Experimental: Phosphorescence from compounds 3-6 was observed cooling a 4:1 EtOH:MeOH solution to 77 K with liquid nitrogen. Dilute sample solutions (Abs<0.1) were prepared in NMR tubes and suspended in a coldfinger Dewar (custom-made by Ace Glass) filled with liquid nitrogen.

[3] = Gibbs free energy for photoinduced electron transfer (equation 6); format: physicochemical; settings: for ΔGeT (Singlet), Gibbs free energy for PeT: PeT from chromanol to singlet excited state; for ΔGeT (Triplet), Gibbs free energy for PeT: PeT from chromanol to triplet excited state, endergonic
Source text: Consistent with quenching of the singlet via PeT from the chromanol segment, the Gibbs free energy for photoinduced electron transfer (ΔGeT^0) was exergonic for compounds 7 and 8, in the range of 0.4 eV (see Table 3).
Based on these calculations ΔGeT^0 for PeT from the chromanol to the triplet excited state of 3-6 was endergonic, ca. 0.27 eV, accounting for the small intermolecular rate constant of quenching measured for these compounds in the presence of either PMHC or trolox, and for the long triplet decay rate constant kT recorded for compound 8. Importantly, the efficiency of PeT also relies in the distance between the trap segment and the photosensitizers a factor that may additionally contribute to the differences observed between compound 7 (methylene linker) and compound 8 (ester linker).

[4] = Laser flash photolysis: triplet excited state decay and quenching; format: physicochemical; settings: for kq (triplet quenching rate constant) Q = PMHC: Ar saturated acetonitrile; for Triplet decay rate constant kT: T-T absorption at 430 nm or 550 nm, argon saturated solutions; for kT (triplet decay rate constant) Air equilibrated / kT (triplet decay rate constant) Argon Purged / kq (triplet quenching rate constant) Q = ^3O2: acetonitrile; for kq (triplet quenching rate constant) Q = ^3O2: calculated with oxygen solubility 2.42 mM
Experimental: The 500 mJ/pulse laser output was attenuated yielding 10 mJ laser pulses of 6 ns in duration. Samples were prepared in acetonitrile. The final absorbance of the BODIPY dyes was 0.1. The concentration was kept low to avoid triplet-triplet annihilation. Each sample was de-oxygenated by purging with argon gas for at least 30 min. Quartz cells containing 10×10 mm path length were used. The decay of the BODIPYs was monitored between 420-440 and 520-550 nm (depending the BODIPY) following the laser excitation. Samples were irradiated with a total of 6 laser shots to acquire the temporal evolution of ΔOD.
A second layer of control was subsequently tested via LFP studies, to monitor the extent to which the trap segment deactivates the triplet excited state of the photosensitizes. […] The two quenchers emulate the trap segments utilized in 7 and 8, respectively.

[5] = Autocatalytic activation of compound 7 (monitoring fluorescence); format: physicochemical
Experimental: The increase in the fluorescence emission due to autocatalytic activation of compound 7 was followed by continuous irradiation at 532 nm and 1.6 mW/cm^2 in air equilibrated acetonitrile using a PTI QuantaMaster spectrofluorimeter. The emission at 557 nm was measured as a function of the irradiation time. Samples were prepared as described above (see Autocatalytic Activation of Compound 7 (Monitoring ^1O2 Phosphorescence)).

[6] = system: E. coli ATCC 25922; assay: Photodynamic minimal inhibitory concentration (PD-MIC); format: cell-based; settings: Escherichia coli
Experimental: The microorganism used for this study is E. coli ATCC 25922. Stock cultures were preserved at −70° C. using glycerol 10% (v/v) as the cryoprotectant, and the strain was grown in Luria Bertania broth (LB). Bacterial culture was prepared inoculating a single colony from a pure culture. After overnight incubation at 37° C. for 18 h, the culture reached a density of approximately 1×10^9 CFU/mL and it was diluted to 10^6 CFU/mL.
We carried out PDI in vitro studies with E. coli. Cells (10^6 CFU/mL) were incubated with 2-fold diluted solutions of compounds 7 and 9 (activated form of 7) in buffer PBS and LB at a proportion of 70:30% (v/v), to obtain concentrations between 40-0.078 μM. Stock solutions of BODIPY 7 and 9 (400 μM) were prepared in acetonitrile. […] PD-MIC was 40 μM for compounds 7 and 9 in dark conditions. Under light irradiation the PD-MIC was 40 μM and 10 μM for 7 and 9 respectively.

[7] = Intermolecular quenching of ^1O2 phosphorescence by chromanol rings; format: physicochemical; settings: ^1O2 generated upon irradiation of compound 5, air equilibrated acetonitrile
Source text: To test whether 7 is equally efficient at deactivating ^1O2 as α-tocopherol, we generated ^1O2 upon irradiation of compound 5 and monitored the ^1O2 phosphorescence lifetime in the presence of increasing amounts of either 7 or PMHC (an α-tocopherol analogue lacking the phytyl tail).

[8] = Autocatalytic activation of compound 7 (monitoring ^1O2 phosphorescence); format: physicochemical
Experimental: ^1O2 phosphorescence (1270 nm) was monitored with a Hamamatsu NIR detector after different irradiation periods with a Nd:YAG laser operating at 10 Hz. The energy of each laser pulse was 10 mJ exciting at 532 nm. Using the same procedure as described above (Determination of ^1O2 Quantum Yield), a total of 3 laser shots were applied to acquire a trace at different time intervals following the continuous irradiation by a second Nd:YAG laser setup. Laser excitation was performed at 10 Hz, providing one laser output for every discharge of the flashlamp. The energy of each laser pulse was 10 mJ. To prepare the samples with PMHC, we first added to the solvent (acetonitrile, air equilibrated) the desired amount of PMHC from a stock solution. Then, compound 7 was dissolved until reaching Abs=0.3 ([7]=5.8 μM). For the samples containing compound 4, we first dissolved 4 in a stock solution of acetonitrile containing 0.12 μM of PMHC and then the desired volume of this solution was added to the solution containing 7 and same concentration of the antioxidant (0.12 μM of PMHC).

SMILES | ΦΔ^D (singlet oxygen quantum yield, direct) [1] | E (Triplet), energy of the lowest triplet state [2] | ΔGeT (Singlet), Gibbs free energy for PeT [3] | ΔGeT (Triplet), Gibbs free energy for PeT [3] | kq (triplet quenching rate constant) Q = PMHC [4] | Triplet decay rate constant kT [4] | kT (triplet decay rate constant) Air equilibrated [4] | kT (triplet decay rate constant) Argon Purged [4] | kq (triplet quenching rate constant) Q = ^3O2 [4] | also measured
CC(=O)OCC1=C2C(C)=C(Br)C(C)=[N+]2[B-](F)(F)n2c(C)c(Br)c(C)c21 [Compound 6, 8-Acetoxymethyl-2,6-dibromo-1,3,5,7-tetramethyl Pyrromethene Fluoroborate] | 0.84 ± 0.02 | 1.53 | −0.43 eV | 0.287 eV | 2.23 ± 0.05 × 10^8 M^−1s^−1 | 27000 s⁻¹ | 6.67 ± 0.04 × 10^6 s^−1 | 2.72 ± 0.03 × 10^4 s^−1 | 2.80 ± 0.02 × 10^9 M^−1s^−1 | –
CC1=C(Br)C(C)=[N+]2C1=C(C)c1c(C)c(Br)c(C)n1[B-]2(F)F [Compound 4, 2,6-dibromo-1,3,5,7,8-pentamethyl-pyrromethene fluoroborate] | 0.72 ± 0.02 | 1.71 | −0.38 eV | 0.282 eV | 1.29 ± 0.04 × 10^8 M^−1s^−1 | 27000 s⁻¹ | 4.55 ± 0.03 × 10^6 s^−1 | 2.70 ± 0.02 × 10^4 s^−1 | 1.91 ± 0.02 × 10^9 M^−1s^−1 | –
CC1=C(I)C(C)=[N+]2C1=C(C)c1c(C)c(I)c(C)n1[B-]2(F)F [Compound 3, 2,6-diiodo-1,3,5,7,8-pentamethyl-pyrromethene fluoroborate] | 0.81 and 0.81 ± 0.02 | 1.70 | −0.37 eV | 0.262 eV | 1.20 ± 0.05 × 10^8 M^−1s^−1 | 17000 s⁻¹ | 4.35 ± 0.02 × 10^6 s^−1 | 1.68 ± 0.02 × 10^4 s^−1 | 1.82 ± 0.03 × 10^9 M^−1s^−1 | photodegradation ([1]; under 532 nm irradiation, presumably via photooxidation): photodegrade at a slightly larger pace than 5
CC(=O)OCC1=C2C(C)=C(I)C(C)=[N+]2[B-](F)(F)n2c(C)c(I)c(C)c21 [Compound 5, 8-Acetoxymethyl-2,6-diiodo-1,3,5,7-tetramethyl Pyrromethene Fluoroborate] | 0.98 and 0.98 ± 0.03 | 1.54 | −0.4 eV | 0.269 eV | 3.95 ± 0.07 × 10^8 M^−1s^−1 | 17000 s⁻¹ | 7.14 ± 0.04 × 10^6 s^−1 | 1.64 ± 0.02 × 10^4 s^−1 | 3.01 ± 0.01 × 10^9 M^−1s^−1 | –
CC1=C(Br)C(C)=[N+]2C1=C(CC1(C)CCc3c(C)c(O)c(C)c(C)c3O1)c1c(C)c(Br)c(C)n1[B-]2(F)F (stereo not drawn) [Compound 7, 8-((6-Hydroxy-2,5,7,8-tetramethylchroman-2-yl)-methyl)-2,6-dibromo-1,3,5,7-tetramethyl] | – | – | – | – | – | – | – | – | – | ^1O2 generation ([1]; freshly prepared solutions): no ^1O2 generation; fraction of 7 pre-oxidized during sample preparation [5]: less than 5%; Fluorescence intensity enhancements ([5]; 0.12 μM sacrificial PMHC, continuous irradiation at 532 nm): ~30 fold; k, apparent second order rate constant for autocatalytic activation ([5]; fit to equation 9, different conditions): ~133 M⁻¹ s⁻¹; MIC ([6]; ATCC25922, light or radiation study, under light irradiation): 40 µM (≈ 25 µg/mL); MIC ([6]; ATCC25922, dark conditions): 40 µM (≈ 25 µg/mL); triplet-triplet absorption ([4]; in contrast to precursor 4): unable to detect any triplet-triplet absorption; singlet oxygen quenching rate constant kq [7]: 2e+08 M⁻¹ s⁻¹; φΔ ([8]; 250 μM PMHC added, before prolonged irradiation): undetectable; ^1O2 phosphorescence lifetime ([8]; 250 μM PMHC added, within the instrument response): ~3 μs; increase in φΔ after prolonged irradiation ([8]; 250 μM PMHC, 8 hs, ˜300,000 laser shots, 10 mJ/pulse): ca. 25 fold; fraction of photoexcited 7 undergoing activation through reaction with its own singlet oxygen ([8]; assuming geminate quenching 100% effective, 5-3% chemical): smaller than 2×10^−4; fraction of photoexcited 7 effectively sensitizing singlet oxygen ([8]; assuming keT˜25×kISC and k′eT˜10×kq[O2]): < 4×10^−3; increase in φΔ over irradiation time ([8]; direct 532 nm laser excitation, air equilibrated acetonitrile, no PMHC): ca. 6 fold
